“And” between values parts separate entries of the source, which are not always exact repeats. Equal values may be shown once. One block for each molecule: values may come before it.
Experiments:
[1] = test system: chymotrypsin; test: Bentiromide test with stable isotope PABA, serum PABA ratio by GC/MS (Pancreatic Ratio); assay type: in vivo, human
Experimental: The abundance of PABA and PABA isotope of the type administered to the patient in the 0-time sample is determined and compared to the abundance of PABA (from cleavage of bentiromide) and isotope PABA in the second sample. After adjustment for differences in the abundance of the identical quantities of PABA isotope used for standardization placed in the assay, the value of PABA in the 0-time sample is subtracted from the abundance of the PABA in the second sample (a like correction is also applied to the PABA isotope of the type administered) and a ratio of natural PABA to PABA isotope of the type administered is then determined. Individuals with a ratio greater than 0.32 are considered normal, individuals with a ratio of 0.28-0.32 are considered indeterminate, individuals with a ratio of less than 0.28 are considered abnormal.
Pancreatic and small bowel function were simultaneously evaluated using a gas chromatographic mass spectrometric (GC/MS) method on serum samples. In this method, xylose absorption was quantitated using [^13 C]1 -xylose, a stable isotope of xylose. Absorption of p-aminobenzoic acid (PABA), released from bentiromide by the action of endogenous chymotrypsin, was compared to the absorption of stable isotope PABA (^13 C6), administered orally simultaneously with bentiromide. The ratio (Pancreatic Ratio) of bentiromide PABA to stable isotope PABA in 60-minute sera samples was determined and expressed as a fraction and quantitated relative to added 2,6[^2 H]2 -PABA.
A person presented with diarrhea and hyperthyroidism and was also noted to have significant steatorrhea (63 g fat/24 hours). The patient was further evaluated with standard serum D-xylose testing, which was abnormal (13 mg/dl, nl 20-40). […] The patient then was given the above GC/MS test. A 0-time 10 ml blood sample was taken; 6.7 mg of bentiromide was administered along with 2.0 mg of stable isotope PABA and 5 g D-xylose, and 8 fl. oz of Resource. Sixty minutes later, 10 ml of blood was drawn. The sera after clotting was collected and the PABA, [^13 C]6 -PABA and xylose were purified and assayed by GC/MS.
At 0-time, a blood sample was taken from all patients in the amount of 10 ml, yielding 4-6 ml of serum, an aliquot of which was analyzed by GC/MS for PABA content.
Bentiromide in the amount of 6.7 mg and stable isotope PABA ([^13 C]6 -PABA) in the amount of 2 mg was administered to normal patients and patients with various pancreatic injuries after Internal Review Board approval. After an overnight fast (nothing by mouth after midnight except water or coffee with cream), a 0-time blood sample was drawn. The patients then drank 8 oz. of Resource followed immediately (within less than five minutes) by the test solution comprising 6.7 mg bentiromide, 2 mg stable isotope PABA, and 5 grams of D-xylose dissolved in 30 cc (1 oz.) of water. Sixty minutes later, 10 mls of blood were drawn and the subjects dismissed.
Serum collected one hour after the test meal was analyzed by GC/MS for the ratio of natural PABA to stable isotope PABA. The simultaneous administration of stable isotope PABA with bentiromide corrects for variations in gastric emptying, intestinal absorption, renal function and interfering substances in serum.
Bentiromide and stable isotope PABA were administered as set forth in Example 2 to four groups of patients designated A, B, C, and D on the X axis of FIG. 1. The ratio of labelled (i.e. stable isotope PABA) to bentiromide PABA in sera at 60 minutes is shown on the Y axis.
Several types of columns are used in this analysis and these include a strong anion exchange column (SAX), a strong cation exchange column (SCX), and a C18 column. The SAX and SCX columns are prepared in disposable plastic columns containing 50 mg of each resin. Prior to use, the column is prepared by a column volume of methanol followed by four washings with four column volumes of water. […]

[2] = test system: chymotrypsin; conditions: cited from earlier work
[3] = human, in vivo, po
Experimental: The serum xylose test is one of the best non-invasive methods for diagnosing intestinal malabsorption. In this test, D-xylose, a five-carbon sugar not naturally present in the body or in foodstuffs, is given orally and an estimation of the increase in serum xylose content is carried out through colorimetric determination (CD) of non-glucose reducing sugars in serum. However, the test is occasionally misleading by giving both false positive and false negative results. Older xylose tests measured xylose in the urine. Problems with this test include the fact that the Roe and Rice method of D-xylose analysis is non-specific and cross-reacts partially with glucose. […] Furthermore, the test critically depends on complete emptying of the urinary bladder at five hours and on intact renal function.
An isotope dilution assay was developed for serum xylose using GC/MS to compare to the CD of serum xylose from a commercial diagnostic company to see if variations in the analysis itself may be a contributing cause to the misleading clinical results. Since GC/MS analysis relies on both column separation and mass identification, it is more specific for xylose determination than CD.

[4] = clinical; set-up: species or system human; conditions: in vivo
Description: Xylose is purified for detection by GC/MS by the process shown in Example 7. The purification process involves rapid deproteination and two-hour derivatization. The analysis involves the examination of one specific ion (M/Z 417) of one specific anomeric peak. Because of natural anomers and possibly incomplete derivatization of carbohydrates, xylose may show several peaks on GC/MS. It is necessary to use a peak providing a linear assay. In the present assay, using a ten-meter column, xylose elutes at 6.6 minutes when the temperature is ramped from 80°-300° C. using helium gas at a head pressure of 50 psi. A second smaller peak elutes at 6.7 minutes. […]
The xylose is also measured in the second fluid sample by GC/MS. […] A value less than or equal to about 2.5 mg/dl is read as abnormal.
Pancreatic and small bowel function were simultaneously evaluated using a gas chromatographic mass spectrometric (GC/MS) method on serum samples. In this method, xylose absorption was quantitated using [^13 C]1 -xylose, a stable isotope of xylose. […] The ratio (Pancreatic Ratio) of bentiromide PABA to stable isotope PABA in 60-minute sera samples was determined and expressed as a fraction and quantitated relative to added 2,6[^2 H]2 -PABA. […]
17. Place supernatant fluid into autosampler vial and examine by GC/MS using ^13 C1 -xylose as a standard for quantitation The derivatized xylose has four peaks. […]

[5] = Alcoholic Pancreatitis (n = 4), serum one hour
[6] = Cystic Fibrosis (n = 16), serum one hour
[7] = Other Pancreatitis (n = 4), serum one hour

- Ratio in % of Natural PABA to Stable Isotope PABA [1, 5]: 5 ± 6%
- Ratio in % of Natural PABA to Stable Isotope PABA, range [1, 5]: 0-14%
- Ratio in % of Natural PABA to Stable Isotope PABA [1, 6]: 4 ± 3%
- Ratio in % of Natural PABA to Stable Isotope PABA, range [1, 6]: 0-11%
- PABA ratio in sera at 60 minutes, FIG. 1 ([1]; Group B, cystic fibrosis): < 0.32
- PABA ratio in sera at 60 minutes, FIG. 1 (in words) ([1]; Group C, failed to improve on pancreatic supplementary enzymes): this entire Group C is normal
- Ratio in % of Natural PABA to Stable Isotope PABA, range ([1]; Normals (n = 38), serum one hour): 34-200%
- Ratio in % of Natural PABA to Stable Isotope PABA ([1]; Normals (n = 38), serum one hour after 6.7 mg bentiromide and 2 mg [^13 C]6 -PABA): 80 ± 20%
- Ratio in % of Natural PABA to Stable Isotope PABA [1, 7]: 7 ± 6%
- Ratio in % of Natural PABA to Stable Isotope PABA, range [1, 7]: 1-16%
- Ratio in % of Natural PABA to Stable Isotope PABA ([1]; Partial Pancreatectomy (n = 2), individual values, serum one hour): 2% and 37%
- ratio of natural PABA to PABA isotope ([1]; patients with documented pancreatic insufficiency, 60-minute samples): ≤ 0.18
- Pancreatic Ratio ([1]; person with steatorrhea, sixty minutes, 6.7 mg bentiromide, 2.0 mg stable isotope PABA, nl greater than 0.32): 0.06
Structure (SMILES): O=C(O)c1ccc(NC(=O)[C@H](Cc2ccc(O)cc2)NC(=O)c2ccccc2)cc1 [Bentiromide, N-benzoyl-L-tyrosyl-p-aminobenzoic acid]
- plasma bentiromide test result in cystic fibrosis patients [2]: abnormally low

- back exchange (boiling water): lack of reaction in boiling water
Structure (SMILES): [2H]c1c([2H])c(C(=O)O)c([2H])c([2H])c1N [Example 12, 4-aminobenzoic-2,3,5,6-[^2 H]4]
- decomposition (hot dilute acid): extensive decomposition in hot dilute acid

- standard serum D-xylose testing [3]: 13 mg/dL
- xylose content by CD, sera post xylose administration [3]: 3 to 52 mg/dL
- concentration at 1 h ([4]; human, po): 150 µg/mL
- xylose analysis, FIG. 4 (in words) [4]: low
Structure (SMILES): O=C[C@H](O)[C@@H](O)[C@H](O)CO [xylose, D-xylose]

Source: patent US5506147A, “Non-invasive evaluation of maldigestion and malaborption” (priority 1994, dated 1996)
